# Where “and” joins values, the source holds several entries; their conditions need not be identical. Equal entries are not always repeated. Where two headings read alike, the source gives them in different places.
# Key:
# Assay type in all cases: cell-based, human
# [1] = tested on: senescent A549 cells (etoposide-induced); assay: Nuclei count senolytic assay, therapy-induced senescence (TIS) model, senescent cells; details: Senescent cells, mean
# In short: (§1)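 Nuclei counting by high-content imaging after 72 h compound treatment of senescent (etoposide-induced) versus control A549 cells. Top dose 10 μM final, lowest 10 nM.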
# [2] = tested on: senescent IMR90 ER:RAS cells (4-OHT-induced); assay: Nuclei count (Hoechst, high content imaging) senolytic assay, oncogene-induced senescence (OIS) model, senescent cells
# In short: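 We compared total nuclei counts between senescent and non-senescent IMR90 ER:RAS cells after 72 h compound exposure (10 nM–10 μM). Hoechst staining followed fixation and permeabilisation; ouabain served as senolytic positive control.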
# [3] = tested on: non-senescent control A549 cells; assay: Nuclei count senolytic assay, TIS model, non-senescent control cells; details: Control cells, mean
# In short: as §1
# [4] = Homo sapiens, A549, log (dose) [M] -5, read-out: Mean % Cell Survival
# [5] = Homo sapiens, A549, log (dose) [M] -5.33, read-out: Mean % Cell Survival
# [6] = Homo sapiens, A549, log (dose) [M] -5.66, read-out: Mean % Cell Survival
# [7] = Homo sapiens, A549, log (dose) [M] -6, read-out: Mean % Cell Survival
# [8] = Homo sapiens, A549, log (dose) [M] -6.33, read-out: Mean % Cell Survival
# [9] = Homo sapiens, A549, log (dose) [M] -6.66, read-out: Mean % Cell Survival
# [10] = Homo sapiens, A549, log (dose) [M] -7, read-out: Mean % Cell Survival
# [11] = Homo sapiens, A549, log (dose) [M] -7.33, read-out: Mean % Cell Survival
# [12] = Homo sapiens, A549, log (dose) [M] -7.66, read-out: Mean % Cell Survival
# [13] = Homo sapiens, A549, log (dose) [M] -8, read-out: Mean % Cell Survival
structure (smiles),measurement,setting,value
"CC(C)=CCc1c(O)cc2oc3cc(O)c(O)c(CC=C(C)C)c3c(=O)c2c1O [Gamma mangostin, gamma mangostin]",Mean % Cell Survival,[1]; log (dose) [M] -5,104.426%
same,Mean % Cell Survival,[1]; log (dose) [M] -5.33,105.938%
same,Mean % Cell Survival,[1]; log (dose) [M] -5.66,108.604%
same,Mean % Cell Survival,[1]; log (dose) [M] -6,101.088%
same,Mean % Cell Survival,[1]; log (dose) [M] -6.33,110.065%
same,Mean % Cell Survival,[1]; log (dose) [M] -6.66,106.259%
same,Mean % Cell Survival,[1]; log (dose) [M] -7,114.559%
same,Mean % Cell Survival,[1]; log (dose) [M] -7.33,114.138%
same,Mean % Cell Survival,[1]; log (dose) [M] -7.66,105.957%
same,Mean % Cell Survival,[1]; log (dose) [M] -8,105.108%
same,% Cell Survival,"[2]; Senescent cells, log (dose) [M] -5, individual replicates, SUP FIG 4C",68.9759% and 85.4054% and 104.1% and 60.479%
same,% Cell Survival,"[2]; Senescent cells, log (dose) [M] -5.33, individual replicates, SUP FIG 4C",98.1928% and 112.613% and 125.668% and 83.9521%
same,% Cell Survival,"[2]; Senescent cells, log (dose) [M] -5.66, individual replicates, SUP FIG 4C",81.0241% and 178.198% and 139.216% and 80.9581%
same,% Cell Survival,"[2]; Senescent cells, log (dose) [M] -6, individual replicates, SUP FIG 4C",64.6084% and 123.964% and 135.651% and 83.2335%
same,% Cell Survival,"[2]; Senescent cells, log (dose) [M] -6.33, individual replicates, SUP FIG 4C",91.7169% and 121.982% and 131.907% and 40.8383%
same,% Cell Survival,"[2]; Senescent cells, log (dose) [M] -6.66, individual replicates, SUP FIG 4C",78.1627% and 116.757% and 113.904% and 77.1257%
same,% Cell Survival,"[2]; Senescent cells, log (dose) [M] -7, individual replicates, SUP FIG 4C",99.8494% and 112.432% and 120.856% and 67.0659%
same,% Cell Survival,"[2]; Senescent cells, log (dose) [M] -7.33, individual replicates, SUP FIG 4C",98.3434% and 101.081% and 114.082% and 90.8982%
same,% Cell Survival,"[2]; Senescent cells, log (dose) [M] -7.66, individual replicates, SUP FIG 4C",107.681% and 108.829% and 116.934% and 93.4132%
same,% Cell Survival,"[2]; Senescent cells, log (dose) [M] -8, individual replicates, SUP FIG 4C",107.53% and 115.315% and 113.725% and 84.9102%
same,Mean % Cell Survival,"[2]; Senescent, log (dose) [M] -5, 72 h, mean n=3 (Fig 3C)",79.74%
same,Mean % Cell Survival,"[2]; Senescent, log (dose) [M] -5.33, 72 h, mean n=3 (Fig 3C)",105.106%
same,Mean % Cell Survival,"[2]; Senescent, log (dose) [M] -5.66, 72 h, mean n=3 (Fig 3C)",119.849%
same,Mean % Cell Survival,"[2]; Senescent, log (dose) [M] -6, 72 h, mean n=3 (Fig 3C)",101.864%
same,Mean % Cell Survival,"[2]; Senescent, log (dose) [M] -6.33, 72 h, mean n=3 (Fig 3C)",96.6111%
same,Mean % Cell Survival,"[2]; Senescent, log (dose) [M] -6.66, 72 h, mean n=3 (Fig 3C)",96.4872%
same,Mean % Cell Survival,"[2]; Senescent, log (dose) [M] -7, 72 h, mean n=3 (Fig 3C)",100.051%
same,Mean % Cell Survival,"[2]; Senescent, log (dose) [M] -7.33, 72 h, mean n=3 (Fig 3C)",101.101%
same,Mean % Cell Survival,"[2]; Senescent, log (dose) [M] -7.66, 72 h, mean n=3 (Fig 3C)",106.714%
same,Mean % Cell Survival,"[2]; Senescent, log (dose) [M] -8, 72 h, mean n=3 (Fig 3C)",105.37%
same,% Cell Survival,"[2]; Senescent, log (dose) [M] -5",105.907% and 101.805% and 105.566%
same,% Cell Survival,"[2]; Senescent, log (dose) [M] -5.33",105.42% and 104.907% and 107.486%
same,% Cell Survival,"[2]; Senescent, log (dose) [M] -5.66",112.424% and 103.215% and 110.173%
same,% Cell Survival,"[2]; Senescent, log (dose) [M] -6",104.019% and 94.1906% and 105.054%
same,% Cell Survival,"[2]; Senescent, log (dose) [M] -6.33",116.322% and 101.974% and 111.9%
same,% Cell Survival,"[2]; Senescent, log (dose) [M] -6.66",112.85% and 97.8003% and 108.125%
same,% Cell Survival,"[2]; Senescent, log (dose) [M] -7",120.95% and 109.419% and 113.308%
same,% Cell Survival,"[2]; Senescent, log (dose) [M] -7.33",110.231% and 111.901% and 120.282%
same,% Cell Survival,"[2]; Senescent, log (dose) [M] -7.66",99.6955% and 109.475% and 108.701%
same,% Cell Survival,"[2]; Senescent, log (dose) [M] -8",101.705% and 108.629% and 104.99%
same,Mean % Cell Survival,[3]; log (dose) [M] -5,93.7374%
same,Mean % Cell Survival,[3]; log (dose) [M] -5.33,87.8038%
same,Mean % Cell Survival,[3]; log (dose) [M] -5.66,85.4347%
same,Mean % Cell Survival,[3]; log (dose) [M] -6,84.7862%
same,Mean % Cell Survival,[3]; log (dose) [M] -6.33,88.6728%
same,Mean % Cell Survival,[3]; log (dose) [M] -6.66,87.417%
same,Mean % Cell Survival,[3]; log (dose) [M] -7,92.9654%
same,Mean % Cell Survival,[3]; log (dose) [M] -7.33,92.7713%
same,Mean % Cell Survival,[3]; log (dose) [M] -7.66,95.9525%
same,Mean % Cell Survival,[3]; log (dose) [M] -8,100.153%
Cc1c(-c2c(F)cc(C(N)=O)c3[nH]c4c(c23)CC[C@H](C(C)(C)O)C4)cccc1-n1c(=O)c2cccc(F)c2n(C)c1=O [BMS 986142],viability at 10 µM,[1]; [4],77.3%
same,viability at 4.68 µM,[1]; [5],86.4%
same,viability at 2.19 µM,[1]; [6],85.2%
same,viability at 1 µM,[1]; [7],92.7%
same,viability at 0.468 µM,[1]; [8],94.2%
same,viability at 0.219 µM,[1]; [9],87.5%
same,viability at 0.1 µM,[1]; [10],100%
same,viability at 0.0468 µM,[1]; [11],95.4%
same,viability at 0.0219 µM,[1]; [12],104%
same,viability at 0.01 µM,[1]; [13],101%
same,viability at 10 µM,"[2]; Homo sapiens, IMR-90, 72 h, Senescent, log (dose) [M] -5, 72 h, mean n=3 (Fig 3C), read-out: Mean % Cell Survival",97.6%
same,viability at 4.677 µM,"[2]; Homo sapiens, IMR-90, 72 h, Senescent, log (dose) [M] -5.33, 72 h, mean n=3 (Fig 3C), read-out: Mean % Cell Survival",143%
same,viability at 2.188 µM,"[2]; Homo sapiens, IMR-90, 72 h, Senescent, log (dose) [M] -5.66, 72 h, mean n=3 (Fig 3C), read-out: Mean % Cell Survival",96.7%
same,viability at 1 µM,"[2]; Homo sapiens, IMR-90, 72 h, Senescent, log (dose) [M] -6, 72 h, mean n=3 (Fig 3C), read-out: Mean % Cell Survival",102%
same,viability at 0.4677 µM,"[2]; Homo sapiens, IMR-90, 72 h, Senescent, log (dose) [M] -6.33, 72 h, mean n=3 (Fig 3C), read-out: Mean % Cell Survival",101%
same,viability at 0.2188 µM,"[2]; Homo sapiens, IMR-90, 72 h, Senescent, log (dose) [M] -6.66, 72 h, mean n=3 (Fig 3C), read-out: Mean % Cell Survival",100%
same,viability at 0.1 µM,"[2]; Homo sapiens, IMR-90, 72 h, Senescent, log (dose) [M] -7, 72 h, mean n=3 (Fig 3C), read-out: Mean % Cell Survival",98.6%
same,viability at 0.04677 µM,"[2]; Homo sapiens, IMR-90, 72 h, Senescent, log (dose) [M] -7.33, 72 h, mean n=3 (Fig 3C), read-out: Mean % Cell Survival",109%
same,viability at 0.02188 µM,"[2]; Homo sapiens, IMR-90, 72 h, Senescent, log (dose) [M] -7.66, 72 h, mean n=3 (Fig 3C), read-out: Mean % Cell Survival",95.3%
same,viability at 0.01 µM,"[2]; Homo sapiens, IMR-90, 72 h, Senescent, log (dose) [M] -8, 72 h, mean n=3 (Fig 3C), read-out: Mean % Cell Survival",97.5%
same,viability at 4.677 µM,"[2]; Homo sapiens, IMR-90, Senescent cells, log (dose) [M] -5.33, individual replicates, SUP FIG 4C, read-out: % Cell Survival",133%
same,viability at 0.4677 µM,"[2]; Homo sapiens, IMR-90, Senescent cells, log (dose) [M] -6.33, individual replicates, SUP FIG 4C, read-out: % Cell Survival",103%
same,viability at 0.2188 µM,"[2]; Homo sapiens, IMR-90, Senescent cells, log (dose) [M] -6.66, individual replicates, SUP FIG 4C, read-out: % Cell Survival",105%
same,viability at 0.1 µM,"[2]; Homo sapiens, IMR-90, Senescent cells, log (dose) [M] -7, individual replicates, SUP FIG 4C, read-out: % Cell Survival",91.6%
same,viability at 0.02188 µM,"[2]; Homo sapiens, IMR-90, Senescent cells, log (dose) [M] -7.66, individual replicates, SUP FIG 4C, read-out: % Cell Survival",94.3%
same,viability at 0.01 µM,"[2]; Homo sapiens, IMR-90, Senescent cells, log (dose) [M] -8, individual replicates, SUP FIG 4C, read-out: % Cell Survival",90.3%
same,viability at 0.01 µM,"[2]; Homo sapiens, IMR-90, Senescent, log (dose) [M] -8, read-out: % Cell Survival",111%
same,viability at 10 µM,[3]; [4],116%
same,viability at 4.68 µM,[3]; [5],101%
same,viability at 2.19 µM,[3]; [6],96.6%
same,viability at 1 µM,[3]; [7],101%
same,viability at 0.468 µM,[3]; [8],98%
same,viability at 0.219 µM,[3]; [9],37.1%
same,viability at 0.1 µM,[3]; [10],98.9%
same,viability at 0.0468 µM,[3]; [11],33.5%
same,viability at 0.0219 µM,[3]; [12],103%
same,viability at 0.01 µM,[3]; [13],99.7%

# Reference: paper PMC10257182, “Discovery of senolytics using machine learning” (Nature Communications, 2023)
